Data from ChEMBL document CHEMBL3507680, “University of Dundee, Gates Library screen for HepG2 cell viability”.

Experiment: Human HepG2 cell viability assay in 384 well format
Assay type: toxicity, cell-based
Set-up: dose 125 nL, time 70.5 hour; concentration not given beside the values
Conditions: HepG2 cells, read-out: Inhibition

| Structure (SMILES) | cytotoxicity at 70.5 h |
| --- | --- |
| CN(Cc1ccc(F)cc1F)Cc1cc2c(cc1Br)OCCO2 | -6.67% |
| CCN(C(=O)c1ccc2nnc(C3CCN(C(C)=O)C3)n2c1)C(C)C (stereo not drawn) | -12.3% |
| Cn1nnc(C2(NC(=O)c3ccccc3)CCCC2)n1 | -8.79% |
| Cc1nc(COC[C@H]2CC[C@H]3NCC[C@H]3O2)cs1 | -6.2% |
| CCn1nc2c(cc1=O)CN(CCOc1ccccc1C#N)CC2 | -8.44% |
| COCCCN1CC2(CCN(C(=O)c3ccc(=O)n(C)c3)CC2)CC1=O | -9.99% |
| Cn1c(C2CC2)nc2cc(NC(=O)C3(O)CCCC3)ccc21 | -4.26% |
| CC(C)(C)CNC1(Cc2cc(C(C)(C)O)on2)COC1 | -7.44% |
| CCc1ccccc1OCCN1CCC(NS(C)(=O)=O)CC1 | 3.87% |
| O=C(O)c1ccccc1-c1ccc(CNC(=O)C2CCOCC2)cc1 | -4.99% |
| Cc1nc(CN2CCOC3(CCCC3)C2)oc1C | -4.4% |
| Cc1cccc(C(=O)N2C[C@@H]3OCCN(c4ncccn4)[C@@H]3C2)n1 | 2.67% |
| CS(=O)(=O)CCN(CCc1cccc(F)c1)C1CC1 | -0.807% |
| Cc1nc(CN2CCCC(N(C)Cc3nnsc3Cl)C2)no1 (stereo not drawn) | -1.91% |
| COc1ccc2cc(CN(C)C(C)c3nc(C(C)(C)C)no3)ccc2c1 (stereo not drawn) | -5.37% |
| CNC(=O)N1CCC2(CC1)CNc1ccc(F)cc12 | -5.44% |
| Cc1nc(C)n(CC2CN(Cc3cccnc3)Cc3nccn3C2)n1 (stereo not drawn) | -1.38% |
| Cc1occc1C(=O)N1CCOCC2(CCN(C3CCOCC3)C2)C1 (stereo not drawn) | -19.7% |
| CCCS(=O)(=O)N1CCn2cc(CNc3ccccn3)nc2C1 | -2.49% |
| COc1cccc(CNc2cc(N3CCCC3CO)ncn2)n1 (stereo not drawn) | -0.345% |
| CNc1nc(C)c(C(=O)N2C[C@@H](C(=O)O)[C@H](C3CC3)C2)s1 | -6.65% |
| Cc1ccccc1C(C(=O)NCCN1CCC(CO)CC1)N(C)C (stereo not drawn) | -3% |
| CS(=O)(=O)N1CCC2(COCc3cnc(-c4ccccc4)nc32)C1 (stereo not drawn) | -10.2% |

| Structure (SMILES) | cytotoxicity at 70.5 h |
| --- | --- |
| CN(C)S(=O)(=O)N1CCCCCC1c1cc(-c2ccc(F)cc2)no1 (stereo not drawn) | 1.28% |
| CC(CN1CCOCC1)n1cncc1-c1cnn(Cc2ccccc2)c1 (stereo not drawn) | -2.84% |
| O=C(O)c1ccccc1-c1ccc(Cn2c(=O)cc[nH]c2=O)cc1 | -0.721% |
| CN(CCCO)C(=O)c1ccc2c(c1)nc(N1CC[C@H](O)C1)n2C | -7.06% |
| CCOC(=O)C1CCN(C(=O)Cn2ccc3cc(Br)ccc32)CC1 | 24.7% |
| Cn1ccnc1CN1CCN(Cc2cc(C#N)ccc2F)CC1 | -11.4% |
| COc1ccc(-c2ccnc(N)c2)c(C)c1 | -15.9% |
| CNC(=O)c1cccnc1N1CCN(Cc2ccccc2)C(CCO)C1 (stereo not drawn) | -14.9% |
| O=C(NCC1CCS(=O)(=O)C1)c1sccc1-c1ccc(F)cc1 (stereo not drawn) | 8.07% |
| Cc1nn(C)c(C)c1C1COCCN1c1ncnc2c(C)cccc12 (stereo not drawn) | -6.31% |
| COc1ccc(-n2ccc(C(=O)NCCN3CCCCC3)n2)cc1 | -4.18% |
| CCc1ccc(S(=O)(=O)Nc2ccncc2)s1 | -5.81% |
| NC(=O)c1cn[nH]c1C1CCCN1C(=O)c1ccccc1 (stereo not drawn) | -5.37% |
| CC(C)(NCc1cccc(C#N)c1)c1ccc2c(c1)OCO2 | -9.81% |
| Cc1cc2ccccc2n1CC(=O)NCC(=O)N1CCOCC1 | -13.2% |
| c1coc(CN2CCn3c(nc4ccccc43)C2)c1 | 29.8% |
| Cc1cncc(C(=O)N2CCC3(CC2)C(=O)Nc2ccccc23)c1 | -7.06% |
| COCCCNC(=O)Cc1cc(-c2ccc3c(c2)OCO3)on1 | 13.4% |
| COCc1nc(C(=O)N2CCCC2c2cccs2)cs1 (stereo not drawn) | -7.86% |
| COCCCNC(=O)c1c[nH]c2ccc(OC)cc12 | -1.45% |
| CCOc1ccccc1C(C(=O)O)N(C)Cc1nc(C)c[nH]1 (stereo not drawn) | -6.68% |
| Cc1ccc2c(c1)C(=O)NCC1(CCN(C(=O)c3csc(C)c3)CC1)O2 | -9.12% |
| Cc1cc(N2CCCC(OC(=O)CCc3cnn(C)c3)C2)nc(C)n1 (stereo not drawn) | -11.2% |

| Structure (SMILES) | cytotoxicity at 70.5 h |
| --- | --- |
| Cc1cc(CN(C)Cc2ncc(-c3cccs3)o2)no1 | 0.203% |
| CCCS(=O)(=O)NC1CCN(c2nnc(C)c(C)c2C#N)CC1 | -6.18% |
| CC(C)CN1CCCn2nc(CNC(=O)Cc3cccc(O)c3)cc2C1 | -9.37% |
| CN1C(=O)CC(C(=O)O)C12CCN(c1ccc3c(n1)CCCC3)CC2 (stereo not drawn) | -5.19% |
| O=C(CN1C[C@H]2CC[C@@H]1CN(Cc1ccccn1)C2)NCc1cccs1 | -7.94% |
| CC(C)COc1cncc(N2CCCN(c3ncccn3)CC2)n1 | -7.71% |
| CC(O)CN1CCN(C(=O)c2cc3ccccc3n2C)CC1 (stereo not drawn) | 14.8% |
| O=C1[C@H]2CN(Cc3ccccn3)C[C@H]2CN1c1ccsc1 | -6.18% |
| CCOCc1nc2c(c(NC(CC)c3cccnc3)n1)CCNCC2 (stereo not drawn) | -3.13% |
| O=C(c1cc(C2CC2)on1)N1C[C@@H]2COC[C@]2(COc2cccnc2)C1 | -4% |
| O=C(c1c[nH]c2ncccc12)N1CCC(COc2ccccc2)CC1 | 10.4% |
| Cc1cccc(CN2C(=O)CCC23CCN(c2ccccn2)CC3)n1 | -9.61% |
| CN(CCO)Cc1nnc(C2CCN(C3CCCCC3)CC2)n1C | -14.7% |
| Cc1nnc(NC(=O)C(C)n2ncc(Br)c2C)s1 (stereo not drawn) | 24.3% |
| CS(=O)(=O)c1ccc(OCCCN2CCc3cncnc3C2)cc1 | 23.6% |
| Cc1ncc(CN(C)CC(O)c2cccc(C(F)(F)F)c2)s1 (stereo not drawn) | 17.1% |
| CCS(=O)(=O)NC(CCSC)C(=O)Nc1ccccc1C (stereo not drawn) | -92% |
| O=C(NCCc1ccn(-c2ccc(F)cc2)n1)C1CCCOC1 (stereo not drawn) | -1.01% |
| COc1cc(CNC2CCN(c3ccccc3)C2)cc(OC)c1OC (stereo not drawn) | -6.84% |
| CC(C(=O)NCC1CCN(c2ccncc2)CC1)S(C)(=O)=O (stereo not drawn) | -7.42% |
| COc1ccc(C(NCc2cccc(C#N)c2)C(C)C)cc1 (stereo not drawn) | 5.48% |
| COc1cc(C2CC(=O)Nc3c2cnn3C)ccc1O (stereo not drawn) | 46.1% |
| CNC(=O)C(C)NC(=O)c1ccc(Oc2cccnc2)cc1 (stereo not drawn) | -10.1% |

| Structure (SMILES) | cytotoxicity at 70.5 h |
| --- | --- |
| CN1CCCN(C(=O)c2cnc(C(C)(C)C)nc2O)CC1 | 0.369% |
| CN1CCC(N2CCOC[C@H](OCC(=O)N(C)C)C2)CC1 | 0.483% |
| Cc1c[nH]c(C(=O)N2CCC(c3nnc(CN(C)CCO)n3C)CC2)c1 | 4.25% |
| CCn1cc2c(n1)CN(Cc1nccs1)CC2COCC1CC1 (stereo not drawn) | -11% |
| O=C(Cc1ccsc1)N1CCC2(CCCN(CC3CCOCC3)C2)C1 (stereo not drawn) | 1.53% |
| O=C1NCCCCC1NC(=O)C1(c2cccc(Cl)c2)CC1 (stereo not drawn) | -0.123% |
| CCN(CC)S(=O)(=O)c1ccc(CNC(=O)N2CCCCCC2)cc1 | -7.35% |
| O=C(NCCNC(=O)C1CCN(c2ncccn2)CC1)c1ccoc1 | 6.55% |
| Cc1nc(N2CCN(C(=O)C(C)(C)C)CC2)cc(-n2cnc(C)c2C)n1 | 13% |
| CCC(C)N1CCc2nc(N3CCCC3)nc(NC(C)C)c2C1 (stereo not drawn) | -7.15% |
| Cc1csc(C2CCCCN2C(=O)Cn2cncn2)n1 (stereo not drawn) | 20.9% |
| O=C1CC[C@H]2CN(Cc3ncc[nH]3)CC[C@H]2N1CC1CCNCC1 | -1.94% |
| Cc1cc(Cc2ccccc2C)cc(C2CCCNC2)n1 (stereo not drawn) | -4.93% |
| Cc1cccc(NC2CCN(C(=O)Nc3cc(C)on3)CC2)n1 | -14.3% |
| CC(NCc1cccs1)c1ccc(OCc2nccn2C)cc1 (stereo not drawn) | -4.31% |
| Cc1cc(C2CCCN2Cc2ccn(C)c(=O)c2)no1 (stereo not drawn) | -1.78% |
| CC(NC(=O)N1CCN(c2ccccc2)CC1)c1nncn1C (stereo not drawn) | -15.6% |
| Cc1ccc(N2CCCN(C(=O)c3c(C)oc(C)c3C)CC2)nn1 | -4.32% |
| COC(C)(C)CNC(=O)N(C)Cc1nc(-c2ccccc2)c[nH]1 | 24.9% |
| O=C(CCN1CCOCC1)N1CCC(Cc2ccc(CO)cc2)C1 (stereo not drawn) | -2.12% |
| CCC(C)NC(=O)Cn1c(Nc2cc(C)cc(C)c2)nc(C)cc1=O (stereo not drawn) | 0.214% |
| NCC(=O)N1CCCC(c2cncc(Nc3ncccn3)n2)C1 (stereo not drawn) | -13.9% |
| CCCc1nc(N(C)Cc2ccco2)c2c(n1)c(C)nn2CC | -3.19% |

| Structure (SMILES) | cytotoxicity at 70.5 h |
| --- | --- |
| O=C(C1CCCC1)N1C[C@H]2CNC[C@H]2C1 | -8.49% |
| CNC(=O)COc1ccccc1CNC1CCc2ncnn2C1 (stereo not drawn) | 29.2% |
| Cn1ncc2c1NC(=O)CSC2c1ccccc1Cl (stereo not drawn) | 14.7% |
| CCN1Cc2cc(F)ccc2N(CC(O)C(F)(F)F)CCC1=O (stereo not drawn) | -8.41% |
| CN1CC(=O)N(c2cccnc2)Cc2c(NC3CC3)ncnc21 | -0.235% |
| O=C(CSc1ccncc1)N1C[C@H]2CC[C@@H]1CN(Cc1cccnc1)C2 | -2.1% |
| CC1=C(C(=O)NCCc2n[nH]c3c2CCCC3)C(C)NC(=O)N1 (stereo not drawn) | 14.6% |
| O=C(CC1CC1)N1CCC2(CC1)CN(c1ncc(F)cn1)CCO2 | -9.05% |
| Cc1cn2cc(-c3nc4c([nH]3)CCCNC4=O)nc2s1 | -10.3% |
| Cn1ccnc1CC1CCCN(Cc2noc(C3CC3)n2)C1 (stereo not drawn) | -9.18% |
| Cc1ccoc1CNCc1nnc2n1CC(C(F)(F)F)CC2 (stereo not drawn) | -12.1% |
| CN(CCC(=O)N1CCc2sccc2C1)Cc1cc(Br)cs1 | -4.84% |
| O=C1CC(c2cccnc2)c2c(c(C(=O)O)cn2-c2ccc(Cl)cc2)N1 (stereo not drawn) | -7.08% |
| CNc1cc(C(=O)N(C)Cc2cc(-c3cccs3)n[nH]2)ccn1 | 0.513% |
| CC(C)COC(=O)N1CCCN(Cc2nnc(C(C)(C)C)o2)CC1 | -4.02% |
| O=C1c2cnc(N3CCOCC3)nc2CN1Cc1cccc(F)c1 | -6.18% |
| CN(C)CCOCC1CN(C(=O)c2cccn2C)Cc2ccnn2C1 (stereo not drawn) | 8.36% |
| Cc1ccccc1OC1CCN(S(=O)(=O)c2c(C)n[nH]c2C)CC1 | -6.57% |
| Cc1nc(C)c(C(=O)NCCNC(=O)Cc2ccc(F)cc2)s1 | 10.7% |
| Cc1cnc(CN(C)C2CCCN(Cc3noc(C4CC4)n3)C2)cn1 (stereo not drawn) | 16.1% |
| CCCN1CCN(C(=O)c2ccn(COc3ccc(F)cc3)n2)CC1 | -3.36% |
